Data from patent US12371416B2, “Compounds for inhibition of fibroblast activation protein” (USTAV ORGANICKE CHEMIE A BIOCHEMIE AV CR, V. V. I., priority 2020, dated 2025).
Entries after “also recorded” stand apart in the source; their conditions may differ.

How the values were obtained:
HL-60 = test: Cytotoxicity (XTT) on HL-60 cells; assay type: cell-based, human; settings: 72 h
Procedure: (§1) The cytotoxicity of the substances was measured on four tumour cell lines: CCRF-CEM, HepG2, Hela, HL-60. All cell lines were purchased from ATCC (Manassas, VA, USA). Cells were cultured in RPMI-1640 or DMEM medium containing 10% (wt/wt) FBS and 1% (wt/wt) GlutaMax. Cells were distributed at 2,000-10,000 per well of a 384-well plate (Thermo Fisher Scientific, Waltham, USA) and incubated overnight. After 24 hours, test substance solutions (10 or 100 μmol·l^−1) were added to the wells and the cells were incubated with the test substances at 37° C. and 5% (vol./vol.) CO2 for another 72 h. XTT dye (XTT cell proliferation kit II, Roche Diagnostics GmbH, Mannheim, Germany) was added to the wells according to the manufacturer's protocol. After one hour of incubation with the dye, the absorbance at 495 nm was measured and the signal was compared with the control (100% viability=cells without test substance).

HepG2 = test: Cytotoxicity (XTT) on HepG2 cells; assay type: cell-based, human; settings: 72 h
Procedure: as §1

[1] = tested on: four human tumour cell lines; test: Cytotoxicity on four human tumour cell lines (summary statement); assay type: cell-based; settings: two concentrations differing by 1 order of magnitude
Procedure: as §1

PREP = target: T1, PREP (Homo sapiens, UniProt P48147); test: Inhibitory activity against human recombinant PREP (IC50); assay type: biochemical; settings: selected substances
T1 construct: purchased R&D Systems 4308-SE-010
T1 sequence (P48147 1-710): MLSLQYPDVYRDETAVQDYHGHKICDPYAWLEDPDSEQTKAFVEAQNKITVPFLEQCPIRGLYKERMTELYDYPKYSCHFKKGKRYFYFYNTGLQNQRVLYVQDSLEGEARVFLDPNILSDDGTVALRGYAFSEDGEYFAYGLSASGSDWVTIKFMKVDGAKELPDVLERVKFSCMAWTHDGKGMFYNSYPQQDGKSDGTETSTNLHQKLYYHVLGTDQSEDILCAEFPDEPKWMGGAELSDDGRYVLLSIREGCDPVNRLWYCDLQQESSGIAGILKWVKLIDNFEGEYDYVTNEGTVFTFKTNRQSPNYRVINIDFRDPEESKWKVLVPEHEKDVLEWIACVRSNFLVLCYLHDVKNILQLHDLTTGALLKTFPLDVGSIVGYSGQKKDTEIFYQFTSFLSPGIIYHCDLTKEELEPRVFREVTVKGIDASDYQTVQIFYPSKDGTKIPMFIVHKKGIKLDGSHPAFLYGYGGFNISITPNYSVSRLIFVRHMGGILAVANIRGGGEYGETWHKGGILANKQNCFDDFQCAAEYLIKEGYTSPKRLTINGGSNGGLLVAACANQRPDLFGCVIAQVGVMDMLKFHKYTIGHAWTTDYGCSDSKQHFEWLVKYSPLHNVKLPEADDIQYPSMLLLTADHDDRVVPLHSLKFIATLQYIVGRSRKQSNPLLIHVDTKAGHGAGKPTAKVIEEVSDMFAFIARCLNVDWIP
Procedure: (§2) Data were analysed by nonlinear regression with GraphPrism (version 8.3.1). The measurement results are given as values of the mean inhibitory concentration IC50 and its linearized form via the negative decimal logarithm of pIC50.

[2] = Stability in murine plasma; assay type: in vitro ADME; settings: 37° C.; for Stability in murine plasma: up to 120 minutes
Procedure: (§3) An aliquot of plasma was extracted with 120 μl of methanol containing caffeine as an internal standard. The solution was vortexed (5 min) and centrifuged (20500 g; 10 min), the supernatant was transferred to a vial, and 1 μl of the mixture was used for LC-MS analysis. […] Results are presented as the percentage of test substance versus control (aliquot taken at time 0).

DPPIV = target: T2, DPPIV (Homo sapiens, UniProt P27487); test: Inhibitory activity against human recombinant DPPIV (IC50); assay type: biochemical; settings: selected substances
T2 construct: purchased R&D Systems 9168-SE-010
Procedure: as §2

[3] = Stability in human plasma; assay type: in vitro ADME; settings: 37° C.; for Stability in human plasma: up to 120 minutes
Procedure: as §3

CCRF-CEM = test: Cytotoxicity (XTT) on CCRF-CEM cells; assay type: cell-based, human; settings: 72 h
Procedure: as §1

Hela = test: Cytotoxicity (XTT) on Hela cells; assay type: cell-based, human; settings: 72 h
Procedure: as §1

[4] = Stability in murine microsomes; assay type: in vitro ADME; settings: murine microsomes 0.5 mg/ml, 5 μmol·l^−1 test substance, NADPH
Procedure: The incubation of 37.5 μl of the mixture was terminated by the addition of 150 μl of acetonitrile containing caffeine as an internal standard, cooled to 0° C. The mixture was vortexed (5 min) and centrifuged (20500 g; 10 min). The supernatant was transferred to a vial, and 1 μl of the mixture was used for LC-MS analysis. […] Results are presented as the percentage of test substance versus control (aliquot taken at time 0).

T2 sequence (P27487 whole entry): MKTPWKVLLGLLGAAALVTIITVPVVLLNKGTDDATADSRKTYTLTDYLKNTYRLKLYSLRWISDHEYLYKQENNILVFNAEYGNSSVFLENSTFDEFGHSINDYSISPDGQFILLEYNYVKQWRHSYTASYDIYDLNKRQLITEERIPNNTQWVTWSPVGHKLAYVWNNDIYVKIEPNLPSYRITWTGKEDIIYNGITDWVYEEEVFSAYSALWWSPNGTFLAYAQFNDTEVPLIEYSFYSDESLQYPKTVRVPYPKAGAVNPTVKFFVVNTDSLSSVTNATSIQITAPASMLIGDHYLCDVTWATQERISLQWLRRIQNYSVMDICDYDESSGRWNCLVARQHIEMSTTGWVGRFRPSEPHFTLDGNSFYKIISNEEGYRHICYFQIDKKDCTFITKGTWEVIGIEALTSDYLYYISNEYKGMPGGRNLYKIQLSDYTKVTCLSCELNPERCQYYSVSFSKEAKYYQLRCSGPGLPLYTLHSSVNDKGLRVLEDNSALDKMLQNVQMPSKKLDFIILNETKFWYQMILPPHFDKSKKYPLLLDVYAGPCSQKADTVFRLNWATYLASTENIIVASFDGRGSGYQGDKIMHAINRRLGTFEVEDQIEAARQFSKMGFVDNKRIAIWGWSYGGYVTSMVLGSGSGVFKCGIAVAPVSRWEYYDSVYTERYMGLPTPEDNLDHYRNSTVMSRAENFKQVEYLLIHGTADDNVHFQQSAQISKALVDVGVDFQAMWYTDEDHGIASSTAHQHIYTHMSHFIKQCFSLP

Compound	IC50 (PREP) [nM]	Stability in murine plasma [2]	IC50 (DPPIV) [nM]	Stability in human plasma [3]	Stability in murine microsomes [4]	substance degraded within 20 minutes ([2]; 20 minutes) [%]	substance degraded within 120 minutes ([3]; 120 minutes) [%]	Cell viability HL60 10 μM (HL-60) [% vs. control]	Cell viability HL60 100 μM (HL-60) [% vs. control]	Cell viability HepG2 10 μM (HepG2) [% vs. control]	Cell viability HepG2 100 μM (HepG2) [% vs. control]	Cytotoxicity [1]	Cell viability CEM 10 μM (CCRF-CEM) [% vs. control]	Cell viability CEM 100 μM (CCRF-CEM) [% vs. control]	Cell viability HeLa S3 10 μM (Hela) [% vs. control]	Cell viability HeLa S3 100 μM (Hela) [% vs. control]
COc1ccc(CNC(=O)C(=O)[C@@H]2CCCN2C(=O)CNC(=O)c2ccnc3ccccc23)cc1OC [Compound 3b, (S)—N-(2-(2-(2-((3,4-Dimethoxybenzyl)amino)-2-oxoacetyl)pyrrolidin-1-yl)-2-oxoethyl)quinoline-4-carboxamide]	0.4	stable; also recorded: high stability	> 4000	stable; also recorded: excellent stability	stable; also recorded: high stability	–	–	88	100	97	92	low cytotoxicity	106	88	106	78
COc1ccc(CCNC(=O)C(=O)[C@@H]2CCCN2C(=O)CNC(=O)c2ccnc3ccccc23)cc1OC [Compound 3e, (S)—N-(2-(2-(2-((3,4-Dimethoxyphenethyl)amino)-2-oxoacetyl)pyrrolidin-1-yl)-2-oxoethyl)quinoline-4-carboxamide]	0.5	stable	> 4000	stable	partially stable	–	–	101	106	92	90	–	108	85	104	86
CC(C)(C)OC(=O)CNC(=O)C(=O)[C@@H]1CCCN1C(=O)CNC(=O)c1ccnc2ccccc12 [Compound 3l, tert-Butyl (S)-(2-oxo-2-(1-((quinoline-4-carbonyl)glycyl)pyrrolidin-2-yl)acetyl)glycinate]	0.6	–	> 4000	–	–	–	–	104	111	97	109	–	104	121	95	100

More lines, main results first:

IC50 (PREP) [nM]	Stability in murine plasma [2]	IC50 (DPPIV) [nM]	Stability in human plasma [3]	Stability in murine microsomes [4]	substance degraded within 20 minutes ([2]; 20 minutes) [%]	substance degraded within 120 minutes ([3]; 120 minutes) [%]	Compound	Cell viability HL60 10 μM (HL-60) [% vs. control]	Cell viability HL60 100 μM (HL-60) [% vs. control]	Cell viability HepG2 10 μM (HepG2) [% vs. control]	Cell viability HepG2 100 μM (HepG2) [% vs. control]	Cytotoxicity [1]	Cell viability CEM 10 μM (CCRF-CEM) [% vs. control]	Cell viability CEM 100 μM (CCRF-CEM) [% vs. control]	Cell viability HeLa S3 10 μM (Hela) [% vs. control]	Cell viability HeLa S3 100 μM (Hela) [% vs. control]
0.4	–	> 4000	–	–	–	–	CCCCCNC(=O)C(=O)[C@@H]1CCCN1C(=O)CNC(=O)c1ccnc2ccccc12 [Compound 3j, (S)—N-(2-Oxo-2-(2-(2-oxo-2-(pentylamino)acetyl)pyrrolidin-1-yl)ethyl)quinoline-4-carboxamide]	109	123	76	124	–	94	119	93	109
0.3	degrade immediately	–	stable	partially stable	100	25	COC(=O)[C@H](Cc1ccccc1)NC(=O)CNC(=O)C(=O)[C@@H]1CCCN1C(=O)CNC(=O)c1ccnc2ccccc12 [Compound 5f, Methyl (2-oxo-2-((S)-1-((quinoline-4-carbonyl)glycyl)pyrrolidin-2-yl)acetyl)glycyl-L-phenylalaninate]	114	98	78	121	–	98	72	96	100
